Assay results reported in ChEMBL document CHEMBL1201862, “PubChem BioAssay data set” (2004).
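Interpolation was linear, between the two tested concentrations surrounding the appropriate level; five concentrations were tested over 48 hours in 96-well plates. GI50: concentration for 50% inhibition of growth.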 Calls of active or inactive are those of the source. No stated cut-off is given here; in the data, active = GI50 up to about 1.1 µM and inactive = higher. Bridge positions count the residues as written; N and C are the ends. Square brackets hold non-standard residues; d marks the D form. Peptide text beside a SMILES is read from it. I, II: the chains in the order shown. * marks the point of attachment. Quinoxaline2carbonyl = O=C(c1cnc2ccccc2n1)*; NMeV = CN[CH](C(=O)O)C(C)C; NMeC = CN[CH](CS)C(=O)O

What was measured:
Experiment in all cases: growth of human tumour cells (NCI), 48 h
EKVX = test system: EKVX
A549 = test system: A549
A498 = test system: A498
MDA-MB-435 = test system: MDA-MB-435
SF-268 = test system: SF-268
NCI-H226 = test system: NCI-H226
OVCAR-4 = test system: OVCAR-4
786-0 = test system: 786-0
COLO 205 = test system: COLO 205
MDA-MB-231 = test system: MDA-MB-231
SK-MEL-5 = test system: SK-MEL-5
NCI-H23 = test system: NCI-H23
MCF7 = test system: MCF7
CCRF-CEM = test system: CCRF-CEM
UACC-62 = test system: UACC-62
SK-MEL-2 = test system: SK-MEL-2
SF-295 = test system: SF-295
UO-31 = test system: UO-31
MOLT-4 = test system: MOLT-4
HL-60 = test system: HL-60

SMILES	GI50 (EKVX)	GI50 (A549)	GI50 (A498)	GI50 (MDA-MB-435)	GI50 (SF-268)	GI50 (NCI-H226)	GI50 (OVCAR-4)	GI50 (786-0)	GI50 (COLO 205)	GI50 (MDA-MB-231)	GI50 (SK-MEL-5)	GI50 (NCI-H23)	GI50 (MCF7)	GI50 (CCRF-CEM)	GI50 (UACC-62)	GI50 (SK-MEL-2)	GI50 (SF-295)	GI50 (UO-31)	GI50 (MOLT-4)	GI50 (HL-60)
CC1NC(=O)C(NC(=O)c2cnc3ccccc3n2)COC(=O)C(C(C)C)N(C)C(=O)C2CSSCC(C(=O)N(C)C(C(C)C)C(=O)OCC(NC(=O)c3cnc4ccccc4n3)C(=O)NC(C)C(=O)N2C)N(C)C1=O (stereo not given) (I: Quinoxaline2carbonyl-SA[NMeC][NMeV] / II: Quinoxaline2carbonyl-SA[NMeC][NMeV]; ester I:1-II:C, I:C-II:1; disulfide I:3-II:3; configuration not given here)	< 0.01 µM (active)	< 0.01 µM (active)	< 0.01 µM (active)	< 0.01 µM (active)	< 0.01 µM (active)	< 0.01 µM (active)	< 0.01 µM (active)	< 0.01 µM (active)	< 0.01 µM (active)	< 0.01 µM (active)	0.0316 µM (active)	< 0.01 µM (active)	< 0.01 µM (active)	< 0.01 µM (active)	< 0.01 µM (active)	< 0.01 µM (active)	< 0.01 µM (active)	< 0.01 µM (active)	< 0.01 µM (active)	< 0.01 µM (active)
O=c1[nH]nc(Cc2ccccc2)n1/N=C/c1ccc([N+](=O)[O-])cc1	> 100 µM (inactive)	> 100 µM (inactive)	> 100 µM (inactive)	> 100 µM (inactive)	> 100 µM (inactive)	> 100 µM (inactive)	> 100 µM (inactive)	> 100 µM (inactive)	> 100 µM (inactive)	> 100 µM (inactive)	> 100 µM (inactive)	> 100 µM (inactive)	> 100 µM (inactive)	> 100 µM (inactive)	> 100 µM (inactive)	49 µM (inactive)	> 100 µM (inactive)	> 100 µM (inactive)	> 100 µM (inactive)	> 100 µM (inactive)
CC(=C(C(N)=O)C(N)=O)C1C=C(c2cccs2)CC(c2ccc(Cl)cc2)=C1O (stereo not given)	> 100 µM (inactive)	88.7 µM (inactive)	21.5 µM (inactive)	42.2 µM (inactive)	> 100 µM (inactive)	73.6 µM (inactive)	5.51 µM (inactive)	36.7 µM (inactive)	42 µM (inactive)	> 100 µM (inactive)	20.3 µM (inactive)	> 100 µM (inactive)	8.95 µM (inactive)	26.2 µM (inactive)	25.1 µM (inactive)	> 100 µM (inactive)	82.8 µM (inactive)	16.4 µM (inactive)	21.9 µM (inactive)	9.59 µM (inactive)
COC(=O)/C=C/c1cnc2c(c1)oc(=O)n2CCc1ccccn1	> 100 µM (inactive)	> 100 µM (inactive)	0.773 µM (active)	20.8 µM (inactive)	> 100 µM (inactive)	17.2 µM (inactive)	> 100 µM (inactive)	> 100 µM (inactive)	> 100 µM (inactive)	> 100 µM (inactive)	59.6 µM (inactive)	> 100 µM (inactive)	> 100 µM (inactive)	31.6 µM (inactive)	> 100 µM (inactive)	> 100 µM (inactive)	> 100 µM (inactive)	> 100 µM (inactive)	> 100 µM (inactive)	1.35 µM (inactive)
CC(=O)Oc1ccccc1/C=C/C(=O)/C=C/c1ccccc1OC(C)=O	1.79 µM (inactive)	2.26 µM (inactive)	2.08 µM (inactive)	2.15 µM (inactive)	1.71 µM (inactive)	1.81 µM (inactive)	2.38 µM (inactive)	1.79 µM (inactive)	1.89 µM (inactive)	2.66 µM (inactive)	1.84 µM (inactive)	1.73 µM (inactive)	0.959 µM (active)	0.501 µM (active)	1.64 µM (inactive)	3.79 µM (inactive)	2.26 µM (inactive)	1.68 µM (inactive)	1.36 µM (inactive)	0.748 µM (active)
CC(C)(C)c1ccc(OCCOc2ccc(C(C)(C)C)cc2NC=O)c(NC=O)c1	10.5 µM (inactive)	5.73 µM (inactive)	15.4 µM (inactive)	6.85 µM (inactive)	15.1 µM (inactive)	10.8 µM (inactive)	7.01 µM (inactive)	8.17 µM (inactive)	1.94 µM (inactive)	11.4 µM (inactive)	4.13 µM (inactive)	7.11 µM (inactive)	4.7 µM (inactive)	2.06 µM (inactive)	12.5 µM (inactive)	14.9 µM (inactive)	5.5 µM (inactive)	5.69 µM (inactive)	2.79 µM (inactive)	6.04 µM (inactive)
COc1ccc2c(c1)[n+]([O-])c(/C(C)=N/NC(N)=S)c(C)[n+]2[O-]	44 µM (inactive)	53.7 µM (inactive)	> 100 µM (inactive)	78.3 µM (inactive)	46.3 µM (inactive)	> 61.7 µM (inactive)	58.9 µM (inactive)	43.6 µM (inactive)	38.8 µM (inactive)	89.7 µM (inactive)	41.2 µM (inactive)	> 67.9 µM (inactive)	41.4 µM (inactive)	27.6 µM (inactive)	44.8 µM (inactive)	> 96.4 µM (inactive)	63.1 µM (inactive)	49.7 µM (inactive)	17.8 µM (inactive)	1.5 µM (inactive)
COCCOCCOCCOc1ccc(C(C#N)N(CCc2ccccc2)C(=O)c2cc(C(=O)N(CCc3ccccc3)C(C#N)c3ccc(OCCOCCOCCOC)cc3)cc(C(=O)N(CCc3ccccc3)C(C#N)c3ccc(OCCOCCOCCOC)cc3)c2)cc1 (stereo not given)	> 100 µM (inactive)	> 100 µM (inactive)	> 100 µM (inactive)	> 100 µM (inactive)	> 100 µM (inactive)	> 100 µM (inactive)	> 100 µM (inactive)	> 100 µM (inactive)	> 100 µM (inactive)	> 100 µM (inactive)	> 100 µM (inactive)	> 100 µM (inactive)	> 100 µM (inactive)	> 100 µM (inactive)	> 100 µM (inactive)	> 100 µM (inactive)	> 100 µM (inactive)	> 100 µM (inactive)	> 100 µM (inactive)	> 100 µM (inactive)
CC1CCCN1CCCOC(=O)c1ccc(OC2C=CCCC2)cc1 (stereo not given)	51.4 µM (inactive)	42.1 µM (inactive)	67.1 µM (inactive)	> 100 µM (inactive)	37.8 µM (inactive)	29.4 µM (inactive)	50 µM (inactive)	22.3 µM (inactive)	16.6 µM (inactive)	18.1 µM (inactive)	19.2 µM (inactive)	25.4 µM (inactive)	25.1 µM (inactive)	30.3 µM (inactive)	> 100 µM (inactive)	> 100 µM (inactive)	16.5 µM (inactive)	34.2 µM (inactive)	25.1 µM (inactive)	17.4 µM (inactive)
CO/C=C(/C(=O)OC)[C@@H]1C[C@@H]1c1ccc2ccccc2c1	19.2 µM (inactive)	18.7 µM (inactive)	39.3 µM (inactive)	14.7 µM (inactive)	24.9 µM (inactive)	29.2 µM (inactive)	16.9 µM (inactive)	33.5 µM (inactive)	18.3 µM (inactive)	26.3 µM (inactive)	16.4 µM (inactive)	28.2 µM (inactive)	30.3 µM (inactive)	27.6 µM (inactive)	32.5 µM (inactive)	15.2 µM (inactive)	37.2 µM (inactive)	30.3 µM (inactive)	16.4 µM (inactive)	18.3 µM (inactive)
CN(NC(=O)c1ccc(Cl)cc1)C1=NCCCCN1	> 100 µM (inactive)	> 100 µM (inactive)	> 100 µM (inactive)	> 100 µM (inactive)	> 100 µM (inactive)	> 100 µM (inactive)	> 100 µM (inactive)	> 100 µM (inactive)	> 100 µM (inactive)	> 100 µM (inactive)	> 100 µM (inactive)	> 100 µM (inactive)	> 100 µM (inactive)	> 100 µM (inactive)	> 100 µM (inactive)	> 100 µM (inactive)	> 100 µM (inactive)	> 100 µM (inactive)	> 100 µM (inactive)	> 100 µM (inactive)
COCCOCCOC1=C(Cl)C(=O)c2c(O)ccc(O)c2C1=O	8.57 µM (inactive)	8.02 µM (inactive)	3.59 µM (inactive)	1.74 µM (inactive)	2.59 µM (inactive)	18.1 µM (inactive)	1.85 µM (inactive)	1.12 µM (active)	1.03 µM (active)	2.01 µM (inactive)	1.71 µM (inactive)	2.48 µM (inactive)	1.97 µM (inactive)	0.414 µM (active)	1.63 µM (inactive)	1.17 µM (inactive)	11.7 µM (inactive)	2.16 µM (inactive)	0.303 µM (active)	0.207 µM (active)
COC(=O)CCc1ccc2c(c1)[C@H](C(=O)OC)[C@@H](c1ccc(O)cc1)O2	> 100 µM (inactive)	> 100 µM (inactive)	> 100 µM (inactive)	> 100 µM (inactive)	> 100 µM (inactive)	25.5 µM (inactive)	> 100 µM (inactive)	> 10 µM (inactive)	> 100 µM (inactive)	> 100 µM (inactive)	40.1 µM (inactive)	71.6 µM (inactive)	72.9 µM (inactive)	59.2 µM (inactive)	> 100 µM (inactive)	> 100 µM (inactive)	> 100 µM (inactive)	> 100 µM (inactive)	35.6 µM (inactive)	90.2 µM (inactive)
